Assay results from patent publication US10675273B2, “Benzothiazole amphiphiles” (The Regents of the University of California, priority 2016, dated 2020).

Experiments:
[1] = tested on: RasGRF1; experiment: Western blot analysis of RasGRF1 expression; assay type: cell-based, human; conditions: differentiated SH-SY5Y cells; for increase in RasGRF1 expression compared to untreated cells: 5 μM, 24 h, normalized to β-tubulin
Description: Western Blot Analysis of Ras-GRF1 Expression in SH-SY5Y Cells Exposed to BAMs 1-3 or BTA-EG6. Differentiation of SH-SY5Y cells was performed according to a previously described procedure. Briefly, cells were differentiated for 8 days by the addition of 10 μM all-trans-retinoic acid (RA) in the cell culture medium (1:1 EMEM and Ham's F12 supplemented with 10% FBS). Media with RA was changed every 2 days. After 8 days, the media was removed and new, RA-free media containing the sample solutions was added. Cells were exposed to solutions containing a final concentration of the BTA-E6 and BAMs (0, 1, or 5 μM) for 24 hours at 37° C. Cells were than lysed with NP-40 buffer with protease inhibitor (Roche, ref #05892791001) and protein concentration was determined by BCA assay (Pierce BCA Assay Kit, #23225). Proteins were separated by SDS-PAGE (NUPAGE® 4-12% Bis-Tris gel, NUPAGE® MES SDS running buffer) followed by transfer onto nitrocellulose membrane (NOVEX®, LC2000). Membranes were blocked with 3% BSA in Tris-Buffered Saline with Tween 20 (TBST) for 1 h followed by incubation with primary antibodies in 3% BSA/TBST [mouse anti-RasGRF1 (BD 610149) and mouse anti-tubulin-β (Thermo MS1226-P)] overnight at 4° C. with shaking. Membranes were then washed with TBST (3×10 min) and then incubated with a TRITC labeled goat anti-mouse antibody (JAX 115-025-003) for 1 h at RT with shaking. After 1 h, the membranes were washed with TBST (6×5 min) and the proteins were visualized using a Typhoon 8600 variable mode imager (GE Healthcare). The density of each band was then quantified using ImageJ software as a percentage of control following normalization to β-tubulin.

[2] = tested on: SH-SY5Y human neuroblastoma cells; experiment: MTT cell viability assay; assay type: cell-based; conditions: 24 h exposure, read-out: IC50 of toxicity
Description: Measurement of Cell Viability in the Presence of BAMs 1-3 and BTA-EG6. An MTT cell viability assay was performed as previously described. Briefly, SH-SY5Y cells were plated in a 96 well plate at a density of 50,000 cells/well in 100 μL of 1:1 Eagle's Minimum Essential Medium (EMEM) and Ham's F12, supplemented with 10% Fetal Bovine Serum (FBS). Cells were allowed to adhere overnight (37° C., 5% CO2) before dosing with 100 μL of various samples solutions of either BTA-EG6 or BAMs 1-3 with final concentrations (0-250 Cells were exposed to these solutions for 24 h at 37° C., 5% CO2. An MTT cell viability kit (ATCC, Product No: 30-1010K) was then used to determine cell viability. Briefly, 20 μL of the provided MTT reagent was added per well and cells were placed in the incubator for 3 h. The insoluble intracellular purple formazan was then dissolved by the addition of 100 μL of detergent reagent provided and let solubilize overnight at room temperature. The cell viability was determined by measuring the absorbance at 570 nm using a SPECTRAMAX® 190 microplate reader (Molecular Devices). All results are presented as percent reduction of MTT relative to untreated cells (100% viability), and all wells were blanked with absorbance values from the wells containing media, MTT reagent and detergent only.

[3] = tested on: rat primary hippocampal neurons; experiment: Rescue of Aβ-induced spine loss; assay type: cell-based; conditions: 1 μM Aβ (1-42) plus 1 or 5 μM compound, 3 days
[4] = Fluorescence emission spectra in water, octanol and aqueous liposome suspension (membrane partitioning); assay type: physicochemical; conditions: 50 μM compound, DiPhyPC liposomes
Description: Measurement of Fluorescence Emission Spectra. The emission spectra of benzothiazoles in different environments was evaluated as previously described. Briefly, BAMs 1-3 and BTA-EG6 were diluted to a final concentration of 50 μM in deionized H2O, pure octanol, and a liposome suspension. The liposomes were prepared from a total lipid concentration of 10 mM of DiPhyPC in water by the gentle dehydration rehydration method followed by tip sonication. 200 μL of each sample was transferred to a cuvette (Hellma® Analytics, Quartz […]® (QS), 10 mm) and the fluorescence emission spectrum was measured in a PTI spectrofluorometer (0.5 nm step size) in water, octanol and an aqueous liposome suspension for BAMs 1-3 and BTA-EG6. Maximal excitation and emission values (λmax) for all compounds were as follows: BTA-EG6 (Ex/Em 355/420 nm), BAM1-EG6 (Ex/Em 355/420 nm), BAM2-EG6, (Ex/Em 365/428 nm), and BAM3-EG6 (Ex/Em 335/398 nm). Each experiment was repeated at least three separate times and error bars denote standard deviation from the mean. Data was processed using ORIGIN® 7.0 (MicroCal Software, Inc., Northampton, Mass.).

[5] = tested on: rat primary hippocampal neurons; experiment: Dendritic spine density and morphology in primary hippocampal neurons; assay type: cell-based; conditions: 24 h exposure, versus vehicle control (0.1% DMSO)
Description: Neuronal Cultures. Rat dissociated hippocampal neurons from postnatal day 1 were plated at a density of 45,000 cells/cm^2 onto poly-D-lysine-coated coverslips. Neurons were maintained in B27 supplemented Neurobasal media (Invitrogen) until days in vitro (DIV) 18-23 as previously described.
Neuronal Treatments. For all neuronal treatments the following general protocol was followed: Briefly, 18-23 DIV rat dissociated hippocampal neurons were dosed with various concentrations (0-50 μM final concentration) of BAMs 1-3 or BTA-EGx (with 0.1% final DMSO concentration) for various times (24-72 h depending on the experiment). After dosing and at the desired time point, the media was removed and cells were rinsed with PBS-MC (phosphate-buffered saline, 1 mM MgCl2 and 0.1 mM CaCl2). Following rinsing, cells were fixed with 4% paraformaldehyde (PFA)/sucrose in PBS for 10 min at RT. […]
Confocal Microscopy and Dendritic Spine Analysis. […] Imaged dendrites were straightened using ImageJ, and spine density was the number of manually counted spines divided by dendrite segment length. The analyzer was blind to treatment and statistical significance was determined between experimental conditions by either unpaired t tests (two groups) or by ANOVA and indicated post hoc multiple-comparison test (>2 experimental conditions).

[6] = tested on: human iPSC-derived neurons; experiment: Spine density of PSD95 puncta in 3-month differentiated NSC; assay type: cell-based; conditions: 5 μM, control DMSO (0.1%)
Description: FIG. 10. Quantification of spine density of PSD95 puncta from 3-month differentiated NSC treated with compound or vehicle control The figure depicts neuron micrographs with staining for MAP2, PSD95 and composite under control and compound administration conditions. “Compound” refers to BAM3-EG6 (5 μM), as depicted in FIG. 1. “Control” refers to DMSO (0.1%). MAP2 is a marker for dendrites, and PSD95 is a marker for post-synaptic features. A histogram (below) depicts normalized PSD95 puncta under control and compound administration conditions. It is observed that […] increases spine density by about 50% compared to control in human iPSC-derived neurons.
FIG. 10 depicts quantification of spine density of PSD95 puncta from 3-month differentiated NSC treated with compound or vehicle control. It is observed that BTA-EG4 analog (e.g., those depicted in FIG. 1) increases spine density by about 50% compared to control in human iPSC-derived neurons.

[7] = previously reported [18,19], cited from earlier work
[8] = tested on: rat primary hippocampal neurons; conditions: previously reported study [40]; cited from earlier work

OCCOCCOCCOCCOCCOCCSc1ccc(-c2nc3ccccc3s2)cc1 [BAM3-EG6, 17-((4-(benzo[d]thiazol-2-yl)phenyl)thio)-3,6,9,12,15-pentaoxaheptadecan-1-ol]
increase in RasGRF1 expression compared to untreated cells [1]: 70%

Cc1ccc2nc(-c3ccc(NCCOCCOCCOCCOCCOCCO)cc3)sc2c1 [BTA-EG6]
increase in RasGRF1 expression compared to untreated cells [1]: approximately 20%
IC50 [2]: 90 µM
net increase in dendritic spine density compared to control [3]: ~20%
spine density higher than in cells treated with Aβ (1-42) alone [3]: ~50%
change of emission max (λmax) in aqueous liposome suspension from water, relative to λmax in pure octanol [4]: 50%

Cc1ccc2nc(-c3ccc(NCCOCCOCCOCCO)cc3)sc2c1 [BTA-EG4]
increase in RasGRF1 expression compared to untreated cells [1]: 20%
effect on RasGRF1 expression levels (in words) ([1]; 1 or 5 μM / increasing concentrations): dose-dependent increase in RasGRF1 levels
effect on dendritic spine density (in words) [5]: observed increase in dendritic spine density over the vehicle control
increase in spine density (PSD95 puncta) compared to control [6]: about 50%
dendritic spine density in vivo ([7]; mice): phenotypic increase in dendritic spine density
memory and learning in cognitive performance tests ([7]; wild-type mice and mouse model for AD): capability to improve memory and learning

C[C@]12CC[C@@H]3c4ccc(O)cc4CC[C@H]3[C@@H]1CC[C@@H]2O [17β-estradiol]
time required to induce maximal increase in spine density [8]: 96 h
